IC50 data for 1 sequence are collected here from EP1555271A1, “Peptides useful for diagnosis and therapy of TRP-2+ and/or TRP-1+ tumors” (Deutsches Krebsforschungszentrum Stiftung des öffentlichen …, priority 2004, dated 2005).

Ends that are not written are not given here.

For this assay, the target named is HLA-DRB1*0301 (Homo sapiens, UniProt P01903+P01911, A100K/A102G/A103R/A169T/F55Y/I96L/K41T/L162R/M171V/P40S/Q125H/Q178H/Q39Y/R42S/S66N/T106N/T262R/W38E/Y61H). The assay is described as follows: HLA-DR competitive binding assay on T2.DR3 cells (biotinylated TT829-843 reporter peptide, Europium sandwich immunoassay). Particulars: dose necessary to reduce TT reporter peptide binding to 50%, 10 µM TT829-843 reporter, 180 min.

The term IC50 denotes the concentration that inhibits the measured activity by half.

Turning to “HLLCLERDLQRLIGN [TRP-2223-237, HLLCLERDLQRLIGN]”, the IC50 was 7.5 µM.
